Molecular target: RamR (Salmonella enterica, UniProt Q8ZR43, K63T/L66M/C134D/S137G)
Conditions: variant 4NB2.1 (4NB2); LB medium, 37 °C; whole-cell biosensor

RamR, sequence (Q8ZR43 whole entry K63T/L66M/C134D/S137G): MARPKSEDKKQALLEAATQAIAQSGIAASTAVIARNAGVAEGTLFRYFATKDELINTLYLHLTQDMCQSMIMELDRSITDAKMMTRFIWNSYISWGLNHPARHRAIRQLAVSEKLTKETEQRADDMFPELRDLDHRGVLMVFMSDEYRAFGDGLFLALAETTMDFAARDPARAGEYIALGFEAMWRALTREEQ

COc1ccc(CNCCc2ccc(O)cc2)cc1O [4′-O-methylnorbelladine]
EC50: 20 µM
